Like-named read-outs stand apart in the source and are kept apart here.
Experiments:
ATase [1] = biological target: T1, ATase (Homo sapiens, UniProt P16455); assay: In vitro ATase inactivation assay with purified recombinant human ATase; assay type: biochemical; set-up: made in house; details: for ability to inactivate recombinant human ATase: up to the highest concentration used, in words; for effectiveness in the in vitro ATase inactivation assay compared with BeG: Figure 1, in words
T1 sequence (P16455 1-207): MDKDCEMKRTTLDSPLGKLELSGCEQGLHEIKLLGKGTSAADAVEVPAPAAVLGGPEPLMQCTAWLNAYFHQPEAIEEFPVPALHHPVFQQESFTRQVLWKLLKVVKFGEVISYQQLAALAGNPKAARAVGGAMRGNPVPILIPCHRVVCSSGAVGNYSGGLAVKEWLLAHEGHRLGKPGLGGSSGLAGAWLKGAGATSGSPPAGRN
Method: The cDNA cloning and overexpression of the human ATase has been reported previously^23. Purification of the recombinant proteins was achieved either by affinity chromatography through a DNA-cellulose column as described by Wilkinson et al.,^25, 26, or by DEAE-cellulose ion-exchange chromatography. For the latter, the ATase protein was partially purified by ammonium sulphate precipitation (30 - 60%) and dialysed against 10 mM Tris-HCl pH 7.5, 1 mM DTT, 2 mM EDTA, 10% glycerol, before loading on a DEAF-cellulose column. The ATase was then eluted with a 0-0.1 M NaCl gradient.
Compounds to be tested were dissolved in DMSO to a final concentration of 10 mM and diluted just before use in buffer I containing 1 mg/ml bovine serum albumin (IBSA). Recombinant ATase was diluted in IBSA and titrated in order that the reaction be conducted under ATase, and not substrate, limiting conditions. In each assay, fixed amounts of ATase (60-75 fmol) were incubated with varying amounts of 0^6-benzylguanine, or test compound in a total volume of 200 µl of IBSA containing 10 µg of calf thymus DNA at 37°C for 1 hour. The [^3H]-methylated-DNA substrate (100 µl containing 6.7 µg of DNA and 100 fmol of 0^6-methylguanine) was added and incubation continued at 37° for 1 hour, until the reaction was completed. Following acid hydrolysis of the DNA as previously described^21 the [^3H]-methylated protein was recovered and quantitated by liquid scintillation counting. Samples were typically assayed in duplicate and experiments repeated several times. I50 is the concentration of inactivator required to produce a 50% reduction in ATase activity.

[2] = Stability of inactivators at 37°C (spectrophotometric half life); assay type: physicochemical
Method: Inactivators (10mM in DMSO) were diluted to 0.1mM in prewarmed degassed buffer I (1mM EDTA, 50mM Tris pH 8.3) or PBS (pH 7-7.2). […] Samples were immediately transferred to a CARY13 spectrophotometer (cuvette block held at 37°C) and scanned at an appropriate wavelength (according to the spectral properties of the compound) at 3-10 minute intervals for up to 80 hours. The results were expressed as percentage absorbance change versus time and T1/2 values (half life) extrapolated from this.

Raji cells = assay: Sensitization of Raji cells to BCNU (XTT assay); assay type: cell-based, human; details: BCNU, 2 hour pretreatment; for Raji sensitization (D90.^C/D90.^I) 0.5µM: inactivator 0.5µM; for Raji sensitization (D90.^C/D90.^I) 1.0µM: inactivator 1.0µM; for Raji sensitization (D90.^C/D90.^I) O.1µM: inactivator O.1µM
Method: Following a 2 hour incubation at 37°C, medium containing either increasing doses of BCNU, temozolomide or equivalent vehicle was added and the cells allowed to grow for 6 days. At this time XTT solution was added and the cells incubated for a further 4 hours at 37°C. The resulting red/orange formazan reaction product was quantified by measuring absorption at 450nm on a microtitre platereader.

ATase [3] = biological target: T1, ATase; assay: Inactivation of ATase activity in Raji cells; assay type: cell-based; set-up: endogenous in cells; host or cells: Raji; details: Raji cells, 2 hours at 37°C; read-out: Raji I50
Method: Mammalian cells were cultured under standard conditions. For example, Raji (a human lymphoblastoid cell line from a Burkitt's lymphoma) cells were grown in suspension culture in RPMI medium supplemented with 10% horse serum. A375M cells are human melanoma cells from which the xenografts described below were established following subcutaneous injection into nude mice: WiDr cells are a human colon carcinoma cell line: Hamster+120 cells are a mitozolomide-selected subline of a Chinese hamster lung fibroblast V79 cell line called RJKO: Yoshida cells are a rat carcinosarcoma cell line and YRbus is a busulphan resistant subline thereof: XP cells are an SV40-transformed fibroblast cell line originally from the skin of a Xeroderma pigmentosum patient, pHMGhAT2b cells are a clone of these cells that have been transfected with a mammalian cell expression vector containing the human ATase cDNA and pHMGla cells are a clone that have been transfected with the expression vector only (i.e. one not containing the human ATase cDNA). Cell pellets were resuspended in cold (4°C) buffer I containing 2 µg/ml leupeptin and sonicated for 10 seconds at 12 µ peak to peak distance. After cooling in ice, the cells were sonicated for a further 10 seconds at 18 µ. Immediately after sonication, 0.01 volumes of 8.7 mg/ml phenylmethanesulphonylfluoride in ethanol was added and the sonicates centrifuged at 15 000 g for 10 minutes at 4°C to pellet cell debris. The supernatant was kept for determination of ATase activity (see below).
Cells were diluted to 10^6/ml in culture medium containing either the appropriate concentration of inactivator or an equivalent volume of vehicle (DMSO). Following incubation at 37°C for 2 hours the cells were harvested by centrifugation, washed twice with PBS and the resulting cell pellets (between 1-2 x 10^7 per pellet) stored at -20°C.

A375M cells = assay: Sensitization of A375M cells to BCNU (MTT assay); assay type: cell-based, human; details: for A375M sensitization (D50.^C/D50.^I) 0.5uM: inactivator 0.5uM 2 hours before; for A375M sensitization (D50.^C/D50.^I) 5.0uM: inactivator 5.0uM 2 hours before; for A375M sensitization (D50.^C/D50.^I) 1.0uM: inactivator 1.0uM 2 hours before
Method: Sensitization of A375M cells to the cytotoxic effects of BCNU was analysed by MTT assay ^24 differing from the XTT assay described above as follows. […] After 6 days MTT solution (4mg/ml) was added and cells incubated for 3 hours at 37°C. Medium was aspirated and the resulting purple formazan crystals were solubilised in DMSO (120μl) and cell viability was quantified by measuring absorption at 540nm using a microtitre plate reader.

[4] = 0.1mM in PBS (pH 7-7.2), read-out: T1/2(h) in PBS (converted)
[5] = 0.1mM in buffer I (1mM EDTA, 50mM Tris pH 8.3), read-out: T1/2(h) in Buffer I (converted)

Row | Compound | IC50 (ATase [1]) [nM] | half-life at 100 µM [2, 4] [h] | IC50 (ATase [3]) [nM] | other results
1 | CC(Oc1nc(N)nc2[nH]cnc12)c1ccccc1 (racemic) [B.4214, DL-O^6-(α -methylbenzyl)guanine, reference compound] | > 60000 | – | – | ability to inactivate recombinant human ATase (ATase [1]): did not inactivate ATase up to the highest concentration used
2 | CC(Oc1nc(N)nc2[nH]cnc12)c1cccs1 (racemic) [B.4217, DL-O^6-(α -methylthenyl)guanine] | > 500000 | – | – | ability to inactivate recombinant human ATase (ATase [1]): did not inactivate ATase up to the highest concentration used
3 | CC(Oc1nc(N)nc2[nH]cnc12)c1ccsc1 (racemic) [B.4219, DL-O^6-[1-(3-thienyl)ethyl]guanine] | 85000 | 0.12 | > 1000 | Raji sensitization (D90.^C/D90.^I) 0.5µM (Raji cells): 1.0; Raji sensitization (D90.^C/D90.^I) 1.0µM (Raji cells): 1.0; Raji sensitization (D90.^C/D90.^I) O.1µM (Raji cells): 1.0
4 | Nc1nc(OCc2ccsc2)c2nc[nH]c2n1 [B.4206, O^6-(3-thienylmethyl)guanine] | 30 | > 16 | 60 | half-life at 100 µM [2, 5]: > 80 h; Raji sensitization (D90.^C/D90.^I) 1.0µM (Raji cells): 6.0; Raji sensitization (D90.^C/D90.^I) O.1µM (Raji cells): 1.6; A375M sensitization (D50.^C/D50.^I) 0.5uM (A375M cells): 3.3; A375M sensitization (D50.^C/D50.^I) 5.0uM (A375M cells): 4.6; effectiveness in the in vitro ATase inactivation assay compared with BeG (ATase [1]): somewhat more effective than BeG
5 | Nc1nc(OCc2ccoc2)c2nc[nH]c2n1 [B.4209, O^6-(3-furylmethyl)guanine] | 150 | > 16 | 150 | Raji sensitization (D90.^C/D90.^I) 0.5µM (Raji cells): 1.4; Raji sensitization (D90.^C/D90.^I) 1.0µM (Raji cells): 2.8; Raji sensitization (D90.^C/D90.^I) O.1µM (Raji cells): 1.5; A375M sensitization (D50.^C/D50.^I) 1.0uM (A375M cells): 2.5
6 | Nc1nc(OCc2ccccn2)c2nc[nH]c2n1 [B.4210, O^6-(2-picolyl)guanine] | – | > 16 | – | A375M sensitization (D50.^C/D50.^I) 1.0uM (A375M cells): 1.5
7 | Nc1nc(OCc2cccnc2)c2[nH]cnc2n1 [B.4211, O^6-(3-picolyl)guanine] | 430 | > 16 | – | –
8 | Nc1nc(OCc2ccc3c(c2)OCO3)c2nc[nH]c2n1 [B.4212, O^6-piperonylguanine] | 20 | 0.72 | 50 | half-life at 100 µM [2, 5]: 1.3 h; Raji sensitization (D90.^C/D90.^I) 1.0µM (Raji cells): 10.7; Raji sensitization (D90.^C/D90.^I) O.1µM (Raji cells): 2.7; A375M sensitization (D50.^C/D50.^I) 0.5uM (A375M cells): 2.3; A375M sensitization (D50.^C/D50.^I) 5.0uM (A375M cells): 2.5; effectiveness in the in vitro ATase inactivation assay compared with BeG (ATase [1]): considerably better
9 | Nc1nc(OCc2ccc3ccccc3c2)c2nc[nH]c2n1 [B.4213, O^6-(2-naphthylmethyl)guanine] | 150 | > 16 | 30 | Raji sensitization (D90.^C/D90.^I) 0.5µM (Raji cells): 2.1; Raji sensitization (D90.^C/D90.^I) 1.0µM (Raji cells): 2.9; Raji sensitization (D90.^C/D90.^I) O.1µM (Raji cells): 1.2; A375M sensitization (D50.^C/D50.^I) 1.0uM (A375M cells): 2.0
10 | Cc1ccccc1COc1nc(N)nc2[nH]cnc12 [B.4218, O^6-(2-methylbenzyl)guanine, reference compound] | 58000 | – | – | –
11 | Cc1ccc(COc2nc(N)nc3[nH]cnc23)s1 [B.4220, O^6-(5-methylthenyl)guanine] | 9000 | > 16 | > 1000 | Raji sensitization (D90.^C/D90.^I) 0.5µM (Raji cells): 1.0; Raji sensitization (D90.^C/D90.^I) 1.0µM (Raji cells): 1.0; Raji sensitization (D90.^C/D90.^I) O.1µM (Raji cells): 1.0; A375M sensitization (D50.^C/D50.^I) 1.0uM (A375M cells): 1.3
12 | Cc1ccc(COc2nc(N)nc3[nH]cnc23)o1 [B.4221, O^6-(5-methylfurfuryl)guanine] | 10000 | > 16 | > 1000 | Raji sensitization (D90.^C/D90.^I) 0.5µM (Raji cells): 1.0; Raji sensitization (D90.^C/D90.^I) 1.0µM (Raji cells): 1.0; Raji sensitization (D90.^C/D90.^I) O.1µM (Raji cells): 1.0; A375M sensitization (D50.^C/D50.^I) 1.0uM (A375M cells): 1.0
13 | Nc1nc(OCc2cccc3ccccc23)c2nc[nH]c2n1 [B.4265, O^6-(1-naphthylmethyl)guanine] | 95000 | – | – | half-life at 100 µM [2, 5]: 60 h
14 | Nc1nc(OCc2cc3ccccc3o2)c2nc[nH]c2n1 [B.4266, O^6-(2-benzofuranylmethyl)guanine] | 35 | > 16 | – | A375M sensitization (D50.^C/D50.^I) 0.5uM (A375M cells): 6.3; A375M sensitization (D50.^C/D50.^I) 5.0uM (A375M cells): 6.3
15 | Nc1nc(OCc2ccc3c(c2)OCO3)c2ncn([C@@H]3O[C@H](CO)[C@@H](O)[C@H]3O)c2n1 [B.4268, O^6-piperonylguanosine] | 750 | 8 | – | –
16 | Nc1nc(OCc2ccc(Br)s2)c2nc[nH]c2n1 [B.4269, O^6-(5-bromothenyl)guanine] | 4.5 | – | 6 | –
17 | Nc1nc(OCc2cnc3c(c2)OCO3)c2nc[nH]c2n1 [B.4271, O^6-(5-azapiperonyl)guanine] | 230 | > 16 | – | –
18 | N#Cc1ccc(COc2nc(N)nc3[nH]cnc23)o1 [B.4273, O^6-(5-cyanofurfuryl)guanine] | 6 | – | – | –
19 | Nc1nc(OCc2cnco2)c2nc[nH]c2n1 [B.4274, O^6-(5-oxazolylmethyl)guanine] | 340 | – | – | –
20 | Nc1nc(OCc2cncs2)c2nc[nH]c2n1 [B.4275, O^6-(5-thiazolylmethyl)guanine] | 33 | – | – | –
21 | Nc1nc(OCc2cc3ccccc3s2)c2ncn([C@@H]3O[C@H](CO)[C@@H](O)[C@H]3O)c2n1 [B.4276, O^6-(2-benzo[b]thienylmethyl)guanosine] | 350 | – | – | –
22 | Nc1nc(OCc2ccncc2)c2nc[nH]c2n1 [B.4277, O^6-(4-picolyl)guanine] | 130 | – | – | –
23 | Cn1cc([N+](=O)[O-])cc1COc1nc(N)nc2[nH]cnc12 [B.4278, O^6(1-methyl-4-nitropyrrol-2-ylmethyl) guanine] | 550 | – | – | –
24 | Nc1nc(OCc2cccs2)c2ncn([C@@H]3O[C@H](CO)[C@@H](O)[C@H]3O)c2n1 [B.4279, O^6-thenylguanosine] | 900 | – | – | –
25 | C=CCOc1nc(N)nc2[nH]cnc12 [O^6-allylguanine, reference compound] | 22000 | – | – | half-life at 100 µM [2, 5]: > 64 h; A375M sensitization (D50.^C/D50.^I) 0.5uM (A375M cells): 1.3; A375M sensitization (D50.^C/D50.^I) 5.0uM (A375M cells): 1.9
26 | O^6-(2-methoxybenzyl)guanine [B.4231, reference compound] | – | – | – | IC50 (ATase [1]; recombinant human ATase incubated with inactivator 1 hour at 37°C before substrate, read-out: I50): 60000 nM

Source: EP0702683B1, “06-SUBSTITUTED GUANINE DERIVATIVES, A PROCESS FOR THEIR PREPARATION AND THEIR USE IN TREATING TUMOUR CELLS” (Cancer Research Technology Limited, priority 1993, dated 1994)
